Data reported in patent publication US8703811B2, “Small molecule inhibitors of Plasmodium falciparum dihydroorotate dehydrogenase” (Genzyme Corporation, priority 2008, dated 2014).
Where two headings read alike, the source gives them in different places.

Experiments:
[1] = Permeability; format: in vitro ADME; settings: for Papp: Caco-2
Description: Permeability assays using the Caco-2 colon carcinoma cell line are being used throughout the pharmaceutical industry to estimate the ability of potential drug compounds to cross the intestinal epithelium. Caco-2 cell permeability studies are performed using Caco-2 cell monolayers grown on microporous membranes in multiwell insert systems. With the inserts suspended in the wells of multiwell plates, test compounds can be added to either the upper (apical) or lower (basolateral) chamber to measure permeability in the absorptive (apical to basolateral) or secretive (basolateral to apical) directions. Samples are then taken from the opposite chamber at various time intervals to measure the amount of test compound that has crossed the cell monolayer. A representative method to generate permeability data similar to that in Table 3 can be found in Alsenz, J; Haenel, E. “Development of a 7-Day, 96-Well Caco-2 Permeability Assay with High-Throughput Direct UV Compound Analysis.” Pharmaceutical Research 2003 20(12): p 1961-1969.
Parallel artificial membrane permeability assay (PAMPA) utilizes a simple phospholipid-coated filter disc to measure membrane permeability. It was developed as an alternative to the low throughput. Caco-2 cell permeability assay used to correlate passive permeability with in vivo oral absorption. A representative publication disclosing this method is Kerns, E H; Di, L; Petusky, S; Farris, M; Ley, R; Jupp, P. “Combined application of parallel artificial membrane permeability assay and Caco-2 permeability assays in drug discovery.” J. Pharma Sci. 2004, 93 (6), pages 1440-53.
Cell culture methods (e.g. Caco-2, HT-29 and MDC) and physicochemical methods such as PAMPA and immobilized artificial membrane (IAM) columns are known in the art and can be used to obtain data such as that in Table 3. Hidalgo, I J; “Assessing the absorption of new pharmaceuticals.” Curr Top Med. Chem. 2001 November; 1(5): p 385-401.

[2] = Log D measurement; format: physicochemical
Excerpt: Many standard techniques are known in the art to establish the distribution coefficient of a compound between two particular solvents. The following description is one such technique that could be used to determine the distribution coefficient: The shake-flask method, which consists of dissolving some of the compound in a volume of octanol and water, then physically shaking the mixture and allowing the two solvents to fully separate. The concentration of the compound in each solvent is then measured. The most common method of measuring the distribution of the solute is by HPLC or UV/Vis spectroscopic techniques.

[3] = target: pfDHODH (Plasmodium falciparum (isolate 3D7), UniProt Q08210); test: DHODH chromogen reduction (DCIP) assay, pfDHODH; format: biochemical, P. falciparum; settings: for IC50: read-out: pfDHODH IC50
[4] = system: P. falciparum Dd2; test: Inhibition of in vitro P. falciparum culture, [3H]-hypoxanthine uptake, Dd2; format: cell-based; settings: for EC50: read-out: Dd2 EC50; for IC50: read-out: Dd2 IC50
Outline: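 Parasite growth inhibition measured as relative reduction of [3H]-hypoxanthine uptake in in vitro cultures. Values from non-linear regression fit, using relative growth velocity in place of product-formation rate.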

[5] = Renal Proximal Tubule Epithelial Cell Toxicity Screen; format: cell-based
Description: The Renal Proximal Tubule Epithelial Cell Toxicity Screen is designed to determine whether compound mixtures, breakouts or single compounds are toxic to normal renal epithelial cells. […] Basically, the screen consists of plating renal epithelial cells, exposing them to the desired compound(s) for 4 days and measuring cell viability using the Alamar Blue reagent.
Harvested Kidney Epithelial cells were diluted in REGM to 1.5×10^4 cells/mL. […] NOTE: One plate, the T=0 plate required that 20-30 wells be seeded, and all the other plates had 96 wells seeded. Plates were incubated in 37° C./5% CO2 incubator for 24 hours.
(§1) Alamar Blue solution (25 μL/well) was added to the T=0 plate and mixed. The plate was incubated in 37° C./5% CO2 incubator for 4 hours, mixed and then the fluorescence was measured. 10% Tween 20 stock (10 μL) was added into rows A-D in column 1 (positive control). DMSO (0.5 μL) was added into column 2 (negative control). Compounds were placed into designated wells for desired testing as follows:
Plates were mixed on the shaker, and then incubated in 37° C./5% CO2 incubator for 96 hours. Day 6:
Alamar Blue solution (25 μL/well) was added to the plates containing the compounds and mixed. Plates were incubated in 37° C./5% CO2 incubator for 4 hours, mixed and the fluorescence was measured.

[6] = Normal Human Dermal Fibroblast Toxicity Screen; format: cell-based; settings: human, normal human dermal fibroblasts; four days exposure, Alamar Blue; read-out: Dermal Fibroblast LC50
Description: The Normal Human Dermal Fibroblast Toxicity Screen Protocol is designed to determine whether compound mixtures, breakouts or single compounds are toxic to normal human dermal fibroblasts. The screen involves plating the dermal fibroblasts and then exposing them to the compounds for four days, then cell viability is measured using Alamar Blue reagent.
Harvested Dermal Fibroblast cells were diluted in Growth Media to 0.25 to 0.3×10^5 cells/mL. […] NOTE: One plate, the T=0 plate required that 20-30 wells be seeded and all the other plates had 96 wells seeded. Plates were incubated in 37° C./5% CO2 incubator for 24 hours.
as §1, with “the plate was agitated.” for “mixed.”, “plate” for “plate was incubated”, “incubator was incubated” for “incubator”, “3” for “4”, “agitated the” for “mixed”, “and” for “and then”
Plates were mixed on the shaker, then incubated in 37° C./5% CO2 incubator for 96 hours.
Alamar Blue solution (25 μL/well) was added to the plates containing the compounds, and the plates were agitated. The plates were incubated in 37° C./5% CO2 incubator for 3 hours, agitated and then the fluorescence was measured.

[7] = Table 3, DCIP assay, 20 nM pfDHODH
[8] = Table 3, [3H]-hypoxanthine uptake
[9] = Plasmodium falciparum, DD2, Table 2b
[10] = Plasmodium falciparum, DD2, Table 3, [3H]-hypoxanthine uptake

pfDHODH, sequence (Q08210 159-565 limits assumed): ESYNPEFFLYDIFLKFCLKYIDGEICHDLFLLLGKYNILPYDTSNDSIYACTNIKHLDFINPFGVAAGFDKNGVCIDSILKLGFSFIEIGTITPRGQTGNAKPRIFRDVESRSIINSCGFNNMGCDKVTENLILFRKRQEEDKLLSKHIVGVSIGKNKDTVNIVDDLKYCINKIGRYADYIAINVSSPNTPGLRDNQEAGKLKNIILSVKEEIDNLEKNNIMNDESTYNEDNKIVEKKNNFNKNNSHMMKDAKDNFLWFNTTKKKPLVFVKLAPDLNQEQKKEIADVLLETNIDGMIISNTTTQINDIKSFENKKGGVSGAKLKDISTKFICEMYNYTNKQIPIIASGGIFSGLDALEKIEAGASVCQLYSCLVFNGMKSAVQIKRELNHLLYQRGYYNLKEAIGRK

Compound	Permeability [1]	logD [2]	IC50 ([3]; Table 2b)	IC50 [3, 7]	EC50 ([4]; Table 2b)	IC50 [4, 8]	logD ([2]; octanol/water, read-out: LogD)	inhibition at 50 µM ([3]; 50 μM inhibitor, 200 μM L-DHO, 100 μM CoQD, 60 μM DCIP, read-out: % Inhibition of Product Formation Rate with 50 μM Inhibitor, CoQD)	IC50 ([3]; DCIP assay, 200 μM L-DHO, 18 μM CoQD, 100 μM DCIP, 20 nM enzyme)	CC50 at 96 h [5]	CC50 at 96 h [6]	IC50 ([4]; Plasmodium falciparum, DD2, Erythrocyte, [3H]-hypoxanthine uptake by parasite infected erythrocytes)	EC50 [4, 9]	IC50 [4, 10]	Papp [1]
5-(1H-indol-1-yl)-N-propylthiophene-2-carboxamide [Compound 7]	52 cm/sec × 10^−6	>3.5	459 nM	460 nM	1030 nM	230 nM	–	–	–	–	–	–	–	–	–
CCCNC(=O)c1ccc(-n2c(C)cc3ccccc32)s1 [Compound 1, 5-(2-methyl-1H-indol-1-yl)-N-propylthiophene-2-carboxamide]	–	–	64 nM	70 nM	–	–	> 3.5	104%	42 ± 7 nM	> 62000 nM	> 62000 nM	290 nM	493 nM	250 nM	–
CCCNC(=O)c1ccc(-n2cnc3ccccc32)s1 [Compound 11, 5-(1H-benzo[d]imidazol-1-yl)-N-propylthiophene-2-carboxamide]	–	–	703 nM	700 nM	–	1250 nM	3.3	–	–	> 62000 nM	> 62000 nM	–	1100 nM	955 nM	32 ×10⁻⁶ cm/s
CCCNC(=O)c1ccc(-n2c(C)nc3ccccc32)s1 [Compound 12, 5-(2-methyl-1H-benzo[d]imidazol-1-yl)-N-propylthiophene-2-carboxamide]	–	–	172 nM	170 nM	–	–	3.4	–	–	> 62000 nM	> 62000 nM	–	–	–	65 ×10⁻⁶ cm/s
